The source of these data is ChEMBL document CHEMBL1124755, “Role of hydrogen bonding in ligand interaction with the N-methyl-D-aspartate receptor ion channel” (J Med Chem, 1990).

Assay [1] addresses Glutamate NMDA receptor. As to the kind of experiment: Evaluated for its affinity to bind PCP N-methyl-D-aspartate (NMDA) glutamate receptor in rat brain membrane using [3H]MK-801 as radioligand. The format is cell membranes.
Assay [2] concerns the target Glutamate NMDA receptor. As to the kind of experiment: Evaluated for its affinity to bind ion channel binding sites (phencyclidine or PCP receptor) on the N-methyl-D-aspartate glutamate receptor in rat brain membrane using [3H]MK-801 as radioligand. The format is cell membranes.

A value given as a limit tells only on which side of the number the result lay.

Compound `C[C@]12Cc3ccccc3C[C@](C)(N1)c1ccccc12` had an IC50 in assay [1] of 0.03 µM. In other words, the double-digit nanomolar range.

The compound `Cc1ccc2c(c1)[C@@]1(C)N[C@@H]2Cc2ccccc21` (racemic) gave an IC50 in assay [1] of 0.1 µM.

In turn, `CC12Cc3ccccc3[C@@H](N1)c1ccccc12` (mixture of isomers) registered an IC50 in assay [1] of 0.26 µM.

Turning to `CN1[C@@H]2Cc3ccccc3C[C@@]1(C)c1ccccc12` (racemic), the IC50 in assay [1] stood at 0.53 µM.

As for `C[C@]12N[C@](C)(c3ccccc31)c1ccccc12`, the IC50 in assay [1] is 0.024 µM.

With `C[C@@]12Cc3ccccc3C[C@@H](N1)c1cc(Cl)ccc12` (racemic), in assay [1], the IC50 was 0.25 µM.

In assay [1], `C[C@@]12Cc3ccccc3C[C@@H](N1)c1ccc(Br)cc12` (racemic) returned an IC50 of 0.14 µM.

On to `C[C@@]12Cc3ccc(Cl)cc3C[C@@H](N1)c1ccccc12` (racemic), for which, in assay [1], the IC50 is 0.19 µM. This IC50 and that of the compound before are within 1.5-fold of each other.

`CCN1[C@@H]2Cc3ccccc3C[C@@]1(C)c1ccccc12` (racemic) displayed an IC50 in assay [1] of 2.51 µM.

As for `C[C@]12Cc3ccccc3C[C@](O)(N1)c1ccccc12` (racemic), in assay [1], the IC50 turned out to be 0.104 µM.

As for `C[C@]12Cc3ccccc3C[C@H](c3ccccc31)N2Cc1ccccc1` (racemic), the IC50 in assay [1] worked out at 23 µM.

The compound `C[C@@]12Cc3ccc(Br)cc3C[C@@H](N1)c1ccccc12` (racemic) had an IC50 in assay [1] of 0.32 µM.

Take `c1ccc2c(c1)C[C@@H]1N[C@H](C2)c2ccccc21`: the IC50 in assay [1] stood at 0.64 µM.

As to `C[C@@]12Cc3ccccc3[C@@H](C=N1)c1ccccc12` (racemic), in assay [1], the IC50 was > 100 µM.

In turn, `CC12Cc3ccccc3[C@@H](O)C(CN1)c1ccccc12` (mixture of isomers) had an IC50 in assay [2] of 0.95 µM. In other words, the sub-micromolar range.

As for `CC12Cc3ccccc3[C@H](Cc3ccccc31)N2` (mixture of isomers), the IC50 in assay [1] came out at 0.69 µM.

As to `C[C@@]12Cc3ccccc3C[C@@H](N1)c1ccccc12` (stereo in doubt; (+)-15), in assay [1], the IC50 was determined as 0.104 µM.

Compound `C[C@@]12N[C@@H](c3ccccc31)[C@H](O)c1ccccc12` (racemic) displayed an IC50 in assay [1] of 0.64 µM.

Consider `C[C@]12N[C@H](Cc3c1ccc1ccccc31)c1ccccc12` (racemic), for which the IC50 in assay [1] turned out to be 5.8 µM. This IC50 lies about 9.1-fold higher than the previous one.

Compound `C[C@]12N[C@H](Cc3ccccc31)c1c2ccc2ccccc12` (racemic) came in with an IC50 in assay [1] of 2.3 µM.

`C[C@@]12N[C@@](C)(c3ccccc31)C(O)c1ccccc12` (mixture of isomers; 13): the IC50 in assay [2] worked out at 0.065 µM.

In turn, `C[C@@]12Cc3ccccc3C[C@@H](N1)c1c(Cl)cccc12` (racemic) returned an IC50 in assay [1] of 1.37 µM.

In turn, `C[C@@]12Cc3ccccc3C[C@@H](N1)c1cc(Br)ccc12` (racemic) yielded an IC50 in assay [1] of 0.27 µM.

For `C[C@]12Cc3ccccc3[C@@H]3[C@H](c4ccccc41)N32` (mixture of isomers), in assay [1], the IC50 is > 100 µM.

Regarding `C[C@]12Cc3ccccc3C[C@H](c3ccccc31)[N+]2(C)C` (racemic), in assay [1], the IC50 is 7.1 µM.

Consider `Cc1cccc2c1[C@H]1Cc3ccccc3[C@]2(C)N1` (racemic), for which the IC50 in assay [1] is 3 µM.

With `C[C@]12N[C@H](Cc3ccccc31)Cc1ccccc12`, the IC50 in assay [1] was found to be 0.14 µM.

As to `C[C@@]12Cc3ccc(O)cc3C[C@@H](N1)c1ccccc12` (racemic), the IC50 in assay [1] was found to be 0.14 µM.

`COc1ccc2c(c1)C[C@H]1N[C@@](C)(C2)c2ccccc21` (racemic) had an IC50 in assay [1] of 0.22 µM. This IC50 is about 1.6-fold higher than that of the compound before.

The compound `CC[C@@]12Cc3ccccc3C[C@@H](N1)c1ccccc12` (racemic) gave an IC50 in assay [1] of 1.36 µM.

With `C[C@]12N[C@](C)(Cc3ccccc31)c1ccccc12` (racemic), the IC50 in assay [1] amounted to 0.035 µM. This IC50 lies about 39-fold lower than the previous one.

The compound `C[C@]12N[C@H](Cc3cc4ccccc4cc31)c1ccccc12` (racemic) displayed an IC50 in assay [1] of 89 µM.

With `C[C@@]12Cc3ccccc3C(CN1)[C@@H](O)c1ccccc12` (mixture of isomers), the IC50 in assay [2] is 8.1 µM.

For `C[C@@]12Cc3cc(Br)ccc3C[C@@H](N1)c1ccccc12` (racemic), the IC50 in assay [1] stood at 0.079 µM.

`C[C@@]12N[C@@](C)(c3ccccc31)C(O)c1ccccc12` (mixture of isomers; 14) yielded an IC50 in assay [2] of 6.6 µM.

With `Cc1ccc2c(c1)[C@H]1Cc3ccccc3[C@]2(C)N1` (racemic), the IC50 in assay [1] was found to be 0.44 µM.

On to `CC1c2ccccc2C[C@H]2N[C@]1(C)c1ccccc12` (mixture of isomers), for which the IC50 in assay [1] was determined as 0.59 µM. This IC50 and that of the compound before are within 1.5-fold of each other.

Regarding `CCCC[C@@]12Cc3ccccc3C[C@@](C)(N1)c1ccccc12` (racemic), the IC50 in assay [1] amounted to 3.6 µM. This IC50 is about 6.1-fold higher than that of the compound before.

Consider `C[C@@]12Cc3ccccc3C[C@@H](N1)c1ccccc12` (stereo in doubt; (-)-15), for which, in assay [1], the IC50 was 0.106 µM.

`Cc1cccc2c1C[C@H]1N[C@]2(C)c2ccccc21` (racemic): in assay [1], the IC50 is 0.8 µM. This IC50 lies about 7.5-fold higher than the previous one.

Regarding `C[C@]12N[C@H](Cc3ccccc31)c1cc3ccccc3cc12` (racemic), the IC50 in assay [1] was found to be 86 µM.

Turning to `C[C@@]12Cc3ccccc3C[C@@H](N1)c1ccccc12` (racemic), in assay [1], the IC50 is 0.086 µM.

For the compound `Cc1ccc2c(c1)[C@]1(C)N[C@H](C2)c2ccccc21` (racemic), in assay [1], the IC50 was found to be 0.032 µM.

`Cc1ccc2c(c1)C[C@H]1N[C@]2(C)c2ccccc21` (racemic): in assay [1], the IC50 is 0.64 µM. Against the preceding compound, the IC50 is about 20-fold higher.

By IC50 is commonly meant the point on the concentration scale where inhibition reaches its midpoint. Lower therefore signals higher potency.
